Results as given in ChEMBL document CHEMBL3286360, “Tuning the antimicrobial pharmacophore to enable discovery of short lipopeptides with multiple modes of action” (Eur J Med Chem, 2014).
≈ marks a conversion by molar mass, not a printed value. Where a SMILES comes first, the peptide text is derived from it. The star is where a group is joined. Stearoyl = CCCCCCCCCCCCCCCCCC(=O)*; Palmitoyl = CCCCCCCCCCCCCCCC(=O)*; Myristoyl = CCCCCCCCCCCCCC(=O)*; Lauroyl = CCCCCCCCCCCC(=O)*; Decanoyl = CCCCCCCCCC(=O)*; Octanoyl = CCCCCCCC(=O)*; Hexanoyl = CCCCCC(=O)*

Assays:
Type in all cases: functional
Escherichia coli = test: Antimicrobial activity against Escherichia coli ATCC 25922 after 17 to 20 hrs by serial dilution method
Staphylococcus aureus = test: Antimicrobial activity against Staphylococcus aureus ATCC 12600 after 17 to 20 hrs by serial dilution method
Candida albicans = test: Antimicrobial activity against Candida albicans ATCC 14053 after 17 to 20 hrs by serial dilution method

| Compound | MIC (Escherichia coli) [mg/L] | MIC (Staphylococcus aureus) [mg/L] | MIC (Candida albicans) [mg/L] |
| --- | --- | --- | --- |
| CCCCCCCCCC(=O)N[C@@H](CCCNC(=N)N)C(=O)N[C@@H](Cc1c[nH]c2ccccc12)C(=O)N[C@@H](CCCNC(=N)N)C(N)=O (Decanoyl-Arg-Trp-Arg-NH2) | 15.6 (≈ 23.3 µM) | 7.8 (≈ 11.6 µM) | > 62.5 |
| CCCCCCCCCC(=O)N[C@@H](CCCCN)C(=O)N[C@H](C(=O)N[C@@H](Cc1c[nH]c2ccccc12)C(=O)N[C@@H](Cc1c[nH]c2ccccc12)C(=O)N[C@@H](CCCCN)C(N)=O)[C@@H](C)CC (Decanoyl-KIWWK-NH2) | 7.8 (≈ 8.54 µM) | 3.9 (≈ 4.27 µM) | 15.6 (≈ 17.1 µM) |
| CCCCCCCCCC(=O)N[C@@H](CCCCN)C(=O)N[C@@H](CCCCN)C(=O)N[C@@H](Cc1c[nH]c2ccccc12)C(=O)N[C@@H](CCCCN)C(N)=O (Decanoyl-KKWK-NH2) | > 31.2 | 31.2 (≈ 42 µM) | > 62.5 |
| CCCCCCCCCC(=O)N[C@@H](CCCCN)C(=O)N[C@@H](CCCCN)C(=O)N[C@@H](Cc1c[nH]c2ccccc12)C(=O)N[C@@H](Cc1c[nH]c2ccccc12)C(N)=O (Decanoyl-KKWW-NH2) | 7.8 (≈ 9.75 µM) | 3.9 (≈ 4.87 µM) | 31.2 (≈ 39 µM) |
| CCCCCCCCCC(=O)N[C@@H](CCCCN)C(=O)N[C@@H](Cc1c[nH]c2ccccc12)C(=O)N[C@@H](Cc1c[nH]c2ccccc12)C(=O)N[C@@H](CCCCN)C(N)=O (Decanoyl-KWWK-NH2) | 15.6 (≈ 19.5 µM) | 7.8 (≈ 9.75 µM) | 31.2 (≈ 39 µM) |
| CCCCCCCCCC(=O)N[C@@H](CCCNC(=N)N)C(=O)N[C@@H](Cc1c[nH]c2ccccc12)C(=O)N[C@@H](CCCNC(=N)N)C(=O)N[C@@H](Cc1c[nH]c2ccccc12)C(N)=O (Decanoyl-RWRW-NH2) | 15.6 (≈ 18.2 µM) | 7.8 (≈ 9.11 µM) | > 62.5 |
| CCCCCCCCCC(=O)N[C@@H](CCCNC(=N)N)C(=O)N[C@@H](Cc1c[nH]c2ccccc12)C(=O)N[C@@H](Cc1c[nH]c2ccccc12)C(=O)N[C@@H](CCCNC(=N)N)C(N)=O (Decanoyl-RWWR-NH2) | 15.6 (≈ 18.2 µM) | 7.8 (≈ 9.11 µM) | 15.6 (≈ 18.2 µM) |
| CCCCCC(=O)N[C@@H](CCCNC(=N)N)C(=O)N[C@@H](CCCCN)C(=O)N[C@@H](Cc1c[nH]c2ccccc12)C(=O)N[C@@H](Cc1c[nH]c2ccccc12)C(=O)N[C@@H](CCCCN)C(N)=O (Hexanoyl-RKWWK-NH2) | > 62.5 | 31.2 (≈ 34.7 µM) |  |
| CCCCCCCCCCCCCC(=O)N[C@@H](CCCNC(=N)N)C(=O)N[C@@H](Cc1c[nH]c2ccccc12)C(=O)N[C@@H](CCCNC(=N)N)C(N)=O (Myristoyl-Arg-Trp-Arg-NH2) | 15.6 (≈ 21.5 µM) | 15.6 (≈ 21.5 µM) | > 62.5 |
| CCCCCCCCCCCCCC(=O)N[C@@H](CCCCN)C(=O)N[C@H](C(=O)N[C@@H](Cc1c[nH]c2ccccc12)C(=O)N[C@@H](Cc1c[nH]c2ccccc12)C(=O)N[C@@H](CCCCN)C(N)=O)[C@@H](C)CC (Myristoyl-KIWWK-NH2) | 31.2 (≈ 32.2 µM) | 7.8 (≈ 8.05 µM) | 31.2 (≈ 32.2 µM) |
| CCCCCCCCCCCCCC(=O)N[C@@H](CCCCN)C(=O)N[C@@H](CCCCN)C(=O)N[C@@H](Cc1c[nH]c2ccccc12)C(=O)N[C@@H](CCCCN)C(N)=O (Myristoyl-KKWK-NH2) | 7.8 (≈ 9.77 µM) | 3.9 (≈ 4.89 µM) | > 62.5 |
| CCCCCCCCCCCCCC(=O)N[C@@H](CCCCN)C(=O)N[C@@H](CCCCN)C(=O)N[C@@H](Cc1c[nH]c2ccccc12)C(=O)N[C@@H](Cc1c[nH]c2ccccc12)C(N)=O (Myristoyl-KKWW-NH2) | 15.6 (≈ 18.2 µM) | 7.8 (≈ 9.11 µM) | 15.6 (≈ 18.2 µM) |
| CCCCCCCCCCCCCC(=O)N[C@@H](CCCNC(=N)N)C(=O)N[C@@H](Cc1c[nH]c2ccccc12)C(=O)N[C@@H](CCCNC(=N)N)C(=O)N[C@@H](Cc1c[nH]c2ccccc12)C(N)=O (Myristoyl-RWRW-NH2) | 15.6 (≈ 17.1 µM) | 15.6 (≈ 17.1 µM) | > 62.5 |
| CCCCCCCCCCCCCC(=O)N[C@@H](CCCNC(=N)N)C(=O)N[C@@H](Cc1c[nH]c2ccccc12)C(=O)N[C@@H](Cc1c[nH]c2ccccc12)C(=O)N[C@@H](CCCNC(=N)N)C(N)=O (Myristoyl-RWWR-NH2) | 15.6 (≈ 17.1 µM) | 7.8 (≈ 8.55 µM) | > 62.5 |
| CCCCCCCC(=O)N[C@@H](CCCNC(=N)N)C(=O)N[C@@H](CCCCN)C(=O)N[C@@H](Cc1c[nH]c2ccccc12)C(=O)N[C@@H](Cc1c[nH]c2ccccc12)C(=O)N[C@@H](CCCCN)C(N)=O (Octanoyl-RKWWK-NH2) | 62.5 (≈ 67.3 µM) | 15.6 (≈ 16.8 µM) |  |
| CCCCCCCCCCCCCCCCCC(=O)N[C@@H](CCCNC(=N)N)C(=O)N[C@@H](Cc1c[nH]c2ccccc12)C(=O)N[C@@H](CCCNC(=N)N)C(N)=O (Stearoyl-Arg-Trp-Arg-NH2) | > 31.2 | > 31.2 | > 62.5 |

The next lines start with the values.

| MIC (Escherichia coli) [mg/L] | MIC (Staphylococcus aureus) [mg/L] | MIC (Candida albicans) [mg/L] | Compound |
| --- | --- | --- | --- |
| 31.2 (≈ 30 µM) | 15.6 (≈ 15 µM) | > 62.5 | CCCCCCCCCC(=O)N[C@@H](CCCCN)C(=O)N[C@H](C(=O)N[C@@H](CCCCN)C(=O)N[C@@H](CCCNC(=N)N)C(=O)N[C@@H](Cc1c[nH]c2ccccc12)C(=O)N[C@@H](CCCNC(=N)N)C(N)=O)[C@@H](C)CC (Decanoyl-KIKRWR-NH2) |
| 7.8 (≈ 6.36 µM) | 3.9 (≈ 3.18 µM) | > 62.5 | CCCCCCCCCC(=O)N[C@@H](CCCCN)C(=O)N[C@H](C(=O)N[C@@H](CCCCN)C(=O)N[C@@H](CCCNC(=N)N)C(=O)N[C@@H](Cc1c[nH]c2ccccc12)C(=O)N[C@@H](Cc1c[nH]c2ccccc12)C(=O)N[C@@H](CCCNC(=N)N)C(N)=O)[C@@H](C)CC (Decanoyl-KIKRWWR-NH2) |
| 15.6 (≈ 14.2 µM) | 3.9 (≈ 3.55 µM) | > 62.5 | CCCCCCCCCC(=O)N[C@@H](CCCCN)C(=O)N[C@H](C(=O)N[C@@H](CCCNC(=N)N)C(=O)N[C@@H](Cc1c[nH]c2ccccc12)C(=O)N[C@@H](Cc1c[nH]c2ccccc12)C(=O)N[C@@H](CCCNC(=N)N)C(N)=O)[C@@H](C)CC (Decanoyl-KIRWWR-NH2) |
| 7.8 (≈ 7.5 µM) | 7.8 (≈ 7.5 µM) | > 62.5 | CCCCCCCCCC(=O)N[C@@H](CCCCN)C(=O)N[C@@H](CCCCN)C(=O)N[C@H](C(=O)N[C@@H](CCCNC(=N)N)C(=O)N[C@@H](Cc1c[nH]c2ccccc12)C(=O)N[C@@H](CCCNC(=N)N)C(N)=O)[C@@H](C)CC (Decanoyl-KKIRWR-NH2) |
| 7.8 (≈ 7.11 µM) | 3.9 (≈ 3.55 µM) | > 62.5 | CCCCCCCCCC(=O)N[C@@H](CCCCN)C(=O)N[C@@H](CCCNC(=N)N)C(=O)N[C@H](C(=O)N[C@@H](Cc1c[nH]c2ccccc12)C(=O)N[C@@H](Cc1c[nH]c2ccccc12)C(=O)N[C@@H](CCCNC(=N)N)C(N)=O)[C@@H](C)CC (Decanoyl-KRIWWR-NH2) |
| 7.8 (≈ 7.92 µM) | 7.8 (≈ 7.92 µM) |  | CCCCCCCCCCCC(=O)N[C@@H](CCCNC(=N)N)C(=O)N[C@@H](CCCCN)C(=O)N[C@@H](Cc1c[nH]c2ccccc12)C(=O)N[C@@H](Cc1c[nH]c2ccccc12)C(=O)N[C@@H](CCCCN)C(N)=O (Lauroyl-RKWWK-NH2) |
| 15.6 (≈ 14.2 µM) | 3.9 (≈ 3.56 µM) | > 62.5 | CCCCCCCCCCCCCC(=O)N[C@@H](CCCCN)C(=O)N[C@H](C(=O)N[C@@H](CCCCN)C(=O)N[C@@H](CCCNC(=N)N)C(=O)N[C@@H](Cc1c[nH]c2ccccc12)C(=O)N[C@@H](CCCNC(=N)N)C(N)=O)[C@@H](C)CC (Myristoyl-KIKRWR-NH2) |
| 31.2 (≈ 24.3 µM) | 15.6 (≈ 12.2 µM) | > 62.5 | CCCCCCCCCCCCCC(=O)N[C@@H](CCCCN)C(=O)N[C@H](C(=O)N[C@@H](CCCCN)C(=O)N[C@@H](CCCNC(=N)N)C(=O)N[C@@H](Cc1c[nH]c2ccccc12)C(=O)N[C@@H](Cc1c[nH]c2ccccc12)C(=O)N[C@@H](CCCNC(=N)N)C(N)=O)[C@@H](C)CC (Myristoyl-KIKRWWR-NH2) |
| 31.2 (≈ 27 µM) | 15.6 (≈ 13.5 µM) | > 62.5 | CCCCCCCCCCCCCC(=O)N[C@@H](CCCCN)C(=O)N[C@H](C(=O)N[C@@H](CCCNC(=N)N)C(=O)N[C@@H](Cc1c[nH]c2ccccc12)C(=O)N[C@@H](Cc1c[nH]c2ccccc12)C(=O)N[C@@H](CCCNC(=N)N)C(N)=O)[C@@H](C)CC (Myristoyl-KIRWWR-NH2) |
| 7.8 (≈ 7.12 µM) | 3.9 (≈ 3.56 µM) | > 62.5 | CCCCCCCCCCCCCC(=O)N[C@@H](CCCCN)C(=O)N[C@@H](CCCCN)C(=O)N[C@H](C(=O)N[C@@H](CCCNC(=N)N)C(=O)N[C@@H](Cc1c[nH]c2ccccc12)C(=O)N[C@@H](CCCNC(=N)N)C(N)=O)[C@@H](C)CC (Myristoyl-KKIRWR-NH2) |
| 15.6 (≈ 13.5 µM) | 7.8 (≈ 6.76 µM) | > 62.5 | CCCCCCCCCCCCCC(=O)N[C@@H](CCCCN)C(=O)N[C@@H](CCCNC(=N)N)C(=O)N[C@H](C(=O)N[C@@H](Cc1c[nH]c2ccccc12)C(=O)N[C@@H](Cc1c[nH]c2ccccc12)C(=O)N[C@@H](CCCNC(=N)N)C(N)=O)[C@@H](C)CC (Myristoyl-KRIWWR-NH2) |
| 15.6 (≈ 13.9 µM) | 7.8 (≈ 6.93 µM) | > 62.5 | CCCCCCCCCCCCCC(=O)N[C@@H](CCCNC(=N)N)C(=O)N[C@H](C(=O)N[C@@H](CCCCN)C(=O)N[C@@H](Cc1c[nH]c2ccccc12)C(=O)N[C@@H](Cc1c[nH]c2ccccc12)C(=O)N[C@@H](CCCCN)C(N)=O)[C@@H](C)CC (Myristoyl-RIKWWK-NH2) |
| 15.6 (≈ 15.4 µM) | 7.8 (≈ 7.7 µM) | > 62.5 | CCCCCCCCCCCCCC(=O)N[C@@H](CCCNC(=N)N)C(=O)N[C@@H](CCCCN)C(=O)N[C@@H](Cc1c[nH]c2ccccc12)C(=O)N[C@@H](Cc1c[nH]c2ccccc12)C(=O)N[C@@H](CCCCN)C(N)=O (Myristoyl-RKWWK-NH2) |
| 31.2 (≈ 30 µM) | 31.2 (≈ 30 µM) |  | CCCCCCCCCCCCCCCC(=O)N[C@@H](CCCNC(=N)N)C(=O)N[C@@H](CCCCN)C(=O)N[C@@H](Cc1c[nH]c2ccccc12)C(=O)N[C@@H](Cc1c[nH]c2ccccc12)C(=O)N[C@@H](CCCCN)C(N)=O (Palmitoyl-RKWWK-NH2) |
| > 31.2 | > 31.2 | > 62.5 | CCCCCCCCCCCCCCCCCC(=O)N[C@@H](CCCCN)C(=O)N[C@H](C(=O)N[C@@H](CCCCN)C(=O)N[C@@H](CCCNC(=N)N)C(=O)N[C@@H](Cc1c[nH]c2ccccc12)C(=O)N[C@@H](CCCNC(=N)N)C(N)=O)[C@@H](C)CC (Stearoyl-KIKRWR-NH2) |
| > 31.2 | > 31.2 | > 62.5 | CCCCCCCCCCCCCCCCCC(=O)N[C@@H](CCCCN)C(=O)N[C@H](C(=O)N[C@@H](CCCCN)C(=O)N[C@@H](CCCNC(=N)N)C(=O)N[C@@H](Cc1c[nH]c2ccccc12)C(=O)N[C@@H](Cc1c[nH]c2ccccc12)C(=O)N[C@@H](CCCNC(=N)N)C(N)=O)[C@@H](C)CC (Stearoyl-KIKRWWR-NH2) |
